The IC50 is the point on the concentration scale where inhibition reaches its midpoint.

3 compounds from publication doi:10.1101/208439v1 (biorxiv, 2017) can be followed below.

Read-outs that look alike come from different tables or passages of the source.

In one assay the target is T1, NSD2 (Homo sapiens, UniProt O96028, E1099K).
T1 construct: full length (residues 2-1365), N-terminal His tag, insect cell/baculovirus
T1 sequence (O96028 2-1365 E1099K): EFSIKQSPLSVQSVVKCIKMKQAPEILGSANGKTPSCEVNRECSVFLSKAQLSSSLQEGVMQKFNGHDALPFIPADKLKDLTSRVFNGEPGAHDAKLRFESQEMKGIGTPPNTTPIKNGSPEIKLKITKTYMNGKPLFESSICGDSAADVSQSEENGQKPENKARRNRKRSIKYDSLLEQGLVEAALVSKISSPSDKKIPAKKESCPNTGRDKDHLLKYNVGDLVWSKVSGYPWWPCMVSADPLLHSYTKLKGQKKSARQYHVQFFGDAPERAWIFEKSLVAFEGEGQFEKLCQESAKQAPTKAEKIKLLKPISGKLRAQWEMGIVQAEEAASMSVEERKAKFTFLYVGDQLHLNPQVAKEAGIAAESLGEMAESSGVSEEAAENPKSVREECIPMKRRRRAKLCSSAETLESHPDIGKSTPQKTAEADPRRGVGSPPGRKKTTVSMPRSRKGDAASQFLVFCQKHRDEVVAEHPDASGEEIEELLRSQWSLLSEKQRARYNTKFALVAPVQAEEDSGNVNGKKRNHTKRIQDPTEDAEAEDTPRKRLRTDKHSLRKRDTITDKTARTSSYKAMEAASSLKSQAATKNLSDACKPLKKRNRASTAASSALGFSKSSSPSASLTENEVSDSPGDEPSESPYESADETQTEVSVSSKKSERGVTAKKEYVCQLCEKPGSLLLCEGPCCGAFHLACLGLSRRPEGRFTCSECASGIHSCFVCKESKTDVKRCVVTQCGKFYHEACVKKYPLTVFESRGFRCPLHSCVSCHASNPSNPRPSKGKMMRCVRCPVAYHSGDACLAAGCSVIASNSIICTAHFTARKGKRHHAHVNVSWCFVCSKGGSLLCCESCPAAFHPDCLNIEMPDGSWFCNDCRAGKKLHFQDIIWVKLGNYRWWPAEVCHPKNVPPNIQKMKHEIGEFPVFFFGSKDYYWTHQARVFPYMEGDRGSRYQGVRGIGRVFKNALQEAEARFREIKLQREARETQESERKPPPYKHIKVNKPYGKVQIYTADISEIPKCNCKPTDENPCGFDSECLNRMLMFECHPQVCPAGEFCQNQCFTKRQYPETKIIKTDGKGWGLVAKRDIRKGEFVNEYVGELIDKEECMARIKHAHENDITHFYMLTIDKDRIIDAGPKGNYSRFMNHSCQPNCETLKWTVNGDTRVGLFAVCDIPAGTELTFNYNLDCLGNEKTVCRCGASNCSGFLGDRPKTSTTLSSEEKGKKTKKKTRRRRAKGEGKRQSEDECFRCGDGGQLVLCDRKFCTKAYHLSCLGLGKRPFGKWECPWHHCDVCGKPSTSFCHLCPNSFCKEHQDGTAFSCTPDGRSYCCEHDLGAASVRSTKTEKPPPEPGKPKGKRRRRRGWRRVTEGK
Briefly: HotSpot [3H]SAM filter-binding methyltransferase assay. Format: biochemical.

The target in assay [1] is T2, EZH2 Complex (Homo sapiens, UniProt Q15910, Y641F).
T2 construct: five-member complex, Flag-EED, other subunits His-tagged, insect cells; with Zinc finger protein AEBP2; Polycomb protein EED; Polycomb protein SUZ12
T2 sequence (Q15910 2-746 Y641F): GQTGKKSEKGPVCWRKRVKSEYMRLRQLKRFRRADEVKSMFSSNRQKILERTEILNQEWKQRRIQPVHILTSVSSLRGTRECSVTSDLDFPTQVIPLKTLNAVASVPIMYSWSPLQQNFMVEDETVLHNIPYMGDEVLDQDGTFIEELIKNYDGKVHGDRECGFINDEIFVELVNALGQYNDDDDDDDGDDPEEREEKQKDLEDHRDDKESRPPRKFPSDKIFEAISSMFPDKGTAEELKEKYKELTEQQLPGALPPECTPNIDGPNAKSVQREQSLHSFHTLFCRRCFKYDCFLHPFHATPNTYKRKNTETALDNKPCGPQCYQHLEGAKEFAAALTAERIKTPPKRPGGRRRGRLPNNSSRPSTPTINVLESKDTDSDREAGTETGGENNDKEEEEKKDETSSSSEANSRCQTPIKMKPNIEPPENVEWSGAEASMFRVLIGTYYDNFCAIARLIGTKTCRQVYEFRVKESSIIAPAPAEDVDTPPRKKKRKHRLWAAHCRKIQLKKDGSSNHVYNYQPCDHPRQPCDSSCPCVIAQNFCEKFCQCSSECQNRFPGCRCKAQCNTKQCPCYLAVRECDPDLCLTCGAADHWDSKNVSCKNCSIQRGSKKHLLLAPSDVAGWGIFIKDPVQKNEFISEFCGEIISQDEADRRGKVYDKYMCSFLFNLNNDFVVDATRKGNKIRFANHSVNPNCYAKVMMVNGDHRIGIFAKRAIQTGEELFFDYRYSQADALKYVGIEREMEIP
T2 sequence (O75530 2-441 partner): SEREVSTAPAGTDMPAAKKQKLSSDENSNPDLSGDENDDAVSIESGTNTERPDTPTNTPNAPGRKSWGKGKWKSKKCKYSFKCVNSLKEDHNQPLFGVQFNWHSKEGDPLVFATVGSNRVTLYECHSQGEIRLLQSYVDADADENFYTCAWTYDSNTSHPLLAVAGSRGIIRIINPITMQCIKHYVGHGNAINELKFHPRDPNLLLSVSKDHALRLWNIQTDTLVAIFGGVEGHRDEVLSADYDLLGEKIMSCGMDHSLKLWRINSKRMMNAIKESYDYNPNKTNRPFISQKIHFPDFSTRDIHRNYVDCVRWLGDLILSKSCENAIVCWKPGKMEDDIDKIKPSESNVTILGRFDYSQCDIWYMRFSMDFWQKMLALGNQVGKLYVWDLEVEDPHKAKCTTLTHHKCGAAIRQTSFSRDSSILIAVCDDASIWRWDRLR
T2 sequence (Q15022 2-739 partner): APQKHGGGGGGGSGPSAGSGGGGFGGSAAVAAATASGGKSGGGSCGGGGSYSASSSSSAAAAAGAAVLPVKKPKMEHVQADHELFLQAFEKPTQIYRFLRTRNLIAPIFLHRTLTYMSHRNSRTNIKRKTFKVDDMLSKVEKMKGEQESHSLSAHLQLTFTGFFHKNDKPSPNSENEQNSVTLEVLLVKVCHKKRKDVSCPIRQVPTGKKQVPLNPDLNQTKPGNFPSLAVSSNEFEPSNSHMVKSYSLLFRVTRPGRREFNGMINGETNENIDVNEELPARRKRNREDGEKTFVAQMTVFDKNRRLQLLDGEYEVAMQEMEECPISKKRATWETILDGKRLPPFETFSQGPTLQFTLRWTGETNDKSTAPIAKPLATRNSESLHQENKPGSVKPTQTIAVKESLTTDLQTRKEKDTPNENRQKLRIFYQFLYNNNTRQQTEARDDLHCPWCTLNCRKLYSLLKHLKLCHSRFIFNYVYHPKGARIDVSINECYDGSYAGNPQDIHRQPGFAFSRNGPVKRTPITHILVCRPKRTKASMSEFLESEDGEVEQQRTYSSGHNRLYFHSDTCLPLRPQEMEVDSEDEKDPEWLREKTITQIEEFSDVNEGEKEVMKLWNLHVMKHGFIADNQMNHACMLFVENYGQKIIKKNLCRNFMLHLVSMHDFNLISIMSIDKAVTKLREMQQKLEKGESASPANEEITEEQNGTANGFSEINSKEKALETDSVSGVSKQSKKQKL
T2 sequence (Q09028 2-425 partner): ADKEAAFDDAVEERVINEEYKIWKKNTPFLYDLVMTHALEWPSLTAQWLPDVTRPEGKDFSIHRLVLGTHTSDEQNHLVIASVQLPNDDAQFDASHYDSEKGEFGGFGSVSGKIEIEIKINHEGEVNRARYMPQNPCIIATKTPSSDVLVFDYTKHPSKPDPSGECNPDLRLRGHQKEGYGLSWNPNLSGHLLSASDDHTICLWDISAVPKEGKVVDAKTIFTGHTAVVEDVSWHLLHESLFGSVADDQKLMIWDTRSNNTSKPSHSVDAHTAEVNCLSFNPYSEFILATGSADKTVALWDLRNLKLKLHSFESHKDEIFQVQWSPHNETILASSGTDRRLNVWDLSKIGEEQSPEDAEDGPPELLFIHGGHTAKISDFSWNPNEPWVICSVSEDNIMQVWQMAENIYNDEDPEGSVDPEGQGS
T2 sequence (Q6ZN18 2-517 partner): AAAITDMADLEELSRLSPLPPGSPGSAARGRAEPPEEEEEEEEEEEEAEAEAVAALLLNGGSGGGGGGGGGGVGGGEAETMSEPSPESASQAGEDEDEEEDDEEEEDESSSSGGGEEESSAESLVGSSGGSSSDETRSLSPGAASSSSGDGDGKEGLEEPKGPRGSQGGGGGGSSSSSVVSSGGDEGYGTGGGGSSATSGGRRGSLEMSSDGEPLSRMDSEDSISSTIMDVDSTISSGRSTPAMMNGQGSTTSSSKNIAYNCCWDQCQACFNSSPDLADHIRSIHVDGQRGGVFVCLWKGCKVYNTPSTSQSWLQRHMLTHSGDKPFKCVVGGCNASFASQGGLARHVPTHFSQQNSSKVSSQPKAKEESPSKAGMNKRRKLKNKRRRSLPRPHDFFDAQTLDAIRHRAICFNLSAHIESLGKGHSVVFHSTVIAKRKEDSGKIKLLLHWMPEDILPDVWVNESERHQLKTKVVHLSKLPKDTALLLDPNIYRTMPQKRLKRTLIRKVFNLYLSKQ
The assay is described as above. Format: biochemical.

The target in assay [2] is T3, EZH2 Complex (Homo sapiens, UniProt Q15910).
T3 construct: five-member complex, Flag-EED, other subunits His-tagged, insect cells; with Zinc finger protein AEBP2; Polycomb protein EED; Polycomb protein SUZ12
Described as above. Format: biochemical.

The target of another assay is DNMT3a (Homo sapiens, UniProt Q9Y6K1). As to the kind of experiment: biochemical.
The next assay concerns the target SMYD2 (Homo sapiens, UniProt Q9NRG4). As to the kind of experiment: biochemical.
The target of the next assay is DNMT1 (Homo sapiens, UniProt P26358). As to the kind of experiment: biochemical.
Chain of DNMT1 (P26358 whole entry): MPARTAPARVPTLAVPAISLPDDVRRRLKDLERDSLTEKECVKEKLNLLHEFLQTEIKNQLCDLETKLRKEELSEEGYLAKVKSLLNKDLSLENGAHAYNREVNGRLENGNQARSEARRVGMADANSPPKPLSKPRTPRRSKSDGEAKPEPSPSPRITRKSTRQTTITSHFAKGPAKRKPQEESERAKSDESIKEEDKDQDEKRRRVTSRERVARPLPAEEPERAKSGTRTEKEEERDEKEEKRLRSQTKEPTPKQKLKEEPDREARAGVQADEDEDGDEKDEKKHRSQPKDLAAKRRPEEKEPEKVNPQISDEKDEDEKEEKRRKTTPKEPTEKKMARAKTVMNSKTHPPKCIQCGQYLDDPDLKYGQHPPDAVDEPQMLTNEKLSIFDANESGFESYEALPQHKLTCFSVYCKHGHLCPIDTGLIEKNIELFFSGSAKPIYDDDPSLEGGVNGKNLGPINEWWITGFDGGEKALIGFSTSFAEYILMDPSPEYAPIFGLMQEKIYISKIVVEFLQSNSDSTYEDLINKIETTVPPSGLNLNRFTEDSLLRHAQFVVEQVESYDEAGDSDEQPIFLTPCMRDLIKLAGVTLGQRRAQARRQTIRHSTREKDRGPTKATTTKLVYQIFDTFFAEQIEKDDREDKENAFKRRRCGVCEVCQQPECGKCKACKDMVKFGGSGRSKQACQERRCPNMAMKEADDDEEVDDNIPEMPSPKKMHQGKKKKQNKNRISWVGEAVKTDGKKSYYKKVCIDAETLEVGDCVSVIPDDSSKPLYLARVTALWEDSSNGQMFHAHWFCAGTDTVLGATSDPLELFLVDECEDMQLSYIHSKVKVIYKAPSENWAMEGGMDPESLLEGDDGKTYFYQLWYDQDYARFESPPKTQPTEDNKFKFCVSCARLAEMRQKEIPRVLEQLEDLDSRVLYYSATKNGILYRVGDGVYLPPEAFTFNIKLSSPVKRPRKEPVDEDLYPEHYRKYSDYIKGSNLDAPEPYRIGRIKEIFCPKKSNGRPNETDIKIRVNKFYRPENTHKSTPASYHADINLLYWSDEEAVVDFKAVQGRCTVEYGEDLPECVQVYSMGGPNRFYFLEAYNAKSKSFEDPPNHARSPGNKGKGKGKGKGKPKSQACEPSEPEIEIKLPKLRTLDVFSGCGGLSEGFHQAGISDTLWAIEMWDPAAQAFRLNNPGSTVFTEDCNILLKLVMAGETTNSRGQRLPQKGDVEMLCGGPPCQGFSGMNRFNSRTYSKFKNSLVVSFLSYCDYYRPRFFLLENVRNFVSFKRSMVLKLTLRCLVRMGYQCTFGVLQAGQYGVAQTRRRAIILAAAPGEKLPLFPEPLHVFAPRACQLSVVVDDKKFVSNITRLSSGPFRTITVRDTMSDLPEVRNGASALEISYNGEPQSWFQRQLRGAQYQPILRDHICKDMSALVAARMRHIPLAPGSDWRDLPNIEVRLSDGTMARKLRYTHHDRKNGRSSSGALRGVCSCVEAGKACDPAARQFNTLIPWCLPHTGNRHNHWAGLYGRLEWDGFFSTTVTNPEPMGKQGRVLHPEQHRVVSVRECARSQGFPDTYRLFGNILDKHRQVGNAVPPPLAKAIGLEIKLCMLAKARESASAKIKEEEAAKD
A further assay addresses T4, SETD2 (Homo sapiens, UniProt Q9BYW2).
T4 sequence (Q9BYW2 1434-1711): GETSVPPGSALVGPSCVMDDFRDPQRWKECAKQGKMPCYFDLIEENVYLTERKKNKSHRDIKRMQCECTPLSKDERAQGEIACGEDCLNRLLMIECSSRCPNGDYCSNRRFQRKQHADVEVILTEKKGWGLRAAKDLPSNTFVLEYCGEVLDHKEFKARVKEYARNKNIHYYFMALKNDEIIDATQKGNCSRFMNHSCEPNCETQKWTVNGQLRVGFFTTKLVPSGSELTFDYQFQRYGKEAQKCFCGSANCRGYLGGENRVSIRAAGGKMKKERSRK
Briefly: HotSpot [3H]SAM filter-binding methyltransferase assay. Format: biochemical. Also noted: residues 1434-1711, N-terminal GST fusion, E. coli.

Setting [3] is: nucleosomes, […] SAM, pH […] MgCl2, […] DTT, […] °C, single experiment.
Where [4] appears, read: read-out: DA3003-1 IC50, inhibitor.
The mark [5] stands for this setting: core histone, […] SAM, pH […] EDTA, […] DTT, […] °C, single experiment.

Chain of SMYD2 (Q9NRG4 whole entry): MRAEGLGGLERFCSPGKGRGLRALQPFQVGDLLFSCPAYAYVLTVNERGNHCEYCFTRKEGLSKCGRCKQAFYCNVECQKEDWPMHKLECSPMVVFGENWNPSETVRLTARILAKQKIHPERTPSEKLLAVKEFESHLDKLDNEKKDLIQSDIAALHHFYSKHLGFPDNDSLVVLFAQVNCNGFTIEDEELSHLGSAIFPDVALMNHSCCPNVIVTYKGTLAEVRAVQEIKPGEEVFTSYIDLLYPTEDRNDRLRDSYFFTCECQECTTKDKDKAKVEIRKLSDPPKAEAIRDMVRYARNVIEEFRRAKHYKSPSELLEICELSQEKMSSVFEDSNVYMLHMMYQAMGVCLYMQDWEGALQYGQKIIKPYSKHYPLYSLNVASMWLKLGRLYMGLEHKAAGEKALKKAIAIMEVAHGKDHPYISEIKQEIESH

For the compound `CC1(C)CCC(CN2CCN(c3ccc(C(=O)NS(=O)(=O)c4ccc(NCC5CCOCC5)c([N+](=O)[O-])c4)c(Oc4cnc5[nH]ccc5c4)c3)CC2)=C(c2ccc(Cl)cc2)C1` [ABT-199], the IC50 was determined as 2.2 µM on NSD2; 21 µM on EZH2 Complex [1]; 23 µM on EZH2 Complex [2]; 18 µM against DNMT3a; 44 µM against SMYD2; 44 µM on DNMT1. The same compound returned an IC50 at SETD2 of 3.3 µM.

As to `O=C1C(Cl)=C(NCCN2CCOCC2)C(=O)c2ncccc21` [DA3003-1], the IC50 at NSD2 (setting [3]) stood at 0.11 µM; on EZH2 Complex [1], 0.68 µM; on EZH2 Complex [2], 0.46 µM; at DNMT3a (setting [4]), 1.1 µM; at SMYD2 (setting [4]) it was 1.7 µM; at DNMT1 (setting [4]), 1.7 µM. The IC50 at SETD2 was determined as 0.21 µM.

As to `COc1cccc(-n2nc(C(=O)O)cc2-c2ccc(C3CCCCC3)c(Cl)c2)c1` [TC LPA5 4], the IC50 on NSD2 (setting [3]) amounted to 7.2 µM; on EZH2 Complex [1] (setting [5]) it was 31 µM; on EZH2 Complex [2] (setting [5]) it was 40 µM; on DNMT3a, 16 µM; against SMYD2, 21 µM; against DNMT1, 12 µM. The same compound had a concentration for half-maximal inhibition (IC50) on SETD2 (setting [3]) of 13 µM.
